The source made the active and inactive calls. No cut-off for these calls is given here.
Columns and labels:
Tribolium confusum [1] = assay: Insecticidal activity against adult Tribolium confusum (confused flour beetle) in broken wheat assessed as mortality at 85% EC wettable formulation applied as fumes for 24 hr measured after 14 days by fumigation bioassay; type: functional
Tribolium confusum [2] = assay: Insecticidal activity against larvae of Tribolium confusum (confused flour beetle) in broken wheat assessed as mortality at 9.4 microl/L air at 85% EC formulation applied as fumes for 72 hr measured after 14 days by fumigation bioassay; type: functional
Tribolium confusum [3] = assay: Insecticidal activity against adult Tribolium confusum (confused flour beetle) in broken wheat assessed as mortality at 85% EC wettable formulation applied as fumes for 72 hr measured after 14 days by fumigation bioassay; type: functional
Sitophilus oryzae [4] = assay: Insecticidal activity against adult Sitophilus oryzae (rice weevil) in wheat grain assessed as mortality at 85% EC wettable formulation fumigated for 72 hr applied as fumes after 7 days by fumigation bioassay; type: functional
Tribolium confusum [5] = assay: Insecticidal activity against larvae of Tribolium confusum (confused flour beetle) in broken wheat assessed as mortality at 85% EC wettable formulation applied as fumes for 72 hr measured after 14 days by fumigation bioassay; type: functional
Sitophilus oryzae [6] = assay: Insecticidal activity against adult Sitophilus oryzae (rice weevil) in wheat grain assessed as mortality at 11.3 microl/L air at 85% EC formulation applied as fumes for 72 hr measured after 7 days by fumigation bioassay; type: functional
Plodia interpunctella [7] = assay: Insecticidal activity against larvae of Plodia interpunctella (Indian meal moth ) in wheat grain assessed as mortality at 85% EC dry formulation applied as fumes for 24 hr measured after 7 days by fumigation bioassay; type: functional
Plodia interpunctella [8] = assay: Insecticidal activity against larvae of Plodia interpunctella (Indian meal moth ) in wheat grain assessed as mortality at 85% EC wettable formulation applied as fumes for 24 hr measured after 7 days by fumigation bioassay; type: functional
Tribolium confusum [9] = assay: Insecticidal activity against third-instar larval stage of Tribolium confusum (confused flour beetle) assessed as morphological changes in anterior, posterior and middle regions of midgut with attatched malphigian tubules applied as vapours measured after 24 hr by light microscopy; type: functional, organism-based
Tribolium confusum [10] = assay: Insecticidal activity against third-instar larval stage of Tribolium confusum (confused flour beetle) assessed as change in the integument colour to dark in the middle area with slight effect toward both ends applied as vapour measured after 24 hr by light microscopic analysis; type: functional, organism-based
Tribolium confusum [11] = assay: Insecticidal activity against third-instar larval stage of Tribolium confusum (confused flour beetle) assessed as enlarged mitochondria with reduced quantity of cristae, lower electron dense matrix, vacuolization and rarefaction of mitochondrial matrix in the epithelial cells of epidermal layer in the integument at LC20 applied as fumes measured after 24 hr by electron microscopic analysis; type: functional, organism-based; details: Epithelial cell
Plodia interpunctella [12] = assay: Insecticidal activity against larvae of Plodia interpunctella (Indian meal moth ) in wheat grain assessed as mortality at 85% EC dry formulation applied as fumes for 72 hr measured after 7 days by fumigation bioassay; type: functional
Tribolium confusum [13] = assay: Insecticidal activity against adult Tribolium confusum (confused flour beetle) in broken wheat assessed as mortality at 85% EC dry formulation applied as fumes for 72 hr measured after 14 days by fumigation bioassay; type: functional
Tribolium confusum [14] = assay: (§1) Insecticidal activity against third-instar larval stage of Tribolium confusum (confused flour beetle) assessed as numerous mitochondria with few cristae, reduced electron density, matrix rarefaction and vacuolization of the mitochondrial matrix in columnar cells of the midgut at LC20 applied as fumes measured after 24 hr by electron microscopic analysis; type: functional, organism-based
Tribolium confusum [15] = assay: as §1, with “regenerative nidi” for “columnar”; type: functional, organism-based
Tribolium confusum [16] = assay: Insecticidal activity against larvae of Tribolium confusum (confused flour beetle) in broken wheat assessed as mortality at 11.3 microl/L air at 85% EC formulation applied as fumes for 72 hr measured after 14 days by fumigation bioassay; type: functional
Tribolium confusum [17] = assay: Insecticidal activity against adult Tribolium confusum (confused flour beetle) in broken wheat assessed as mortality at 11.3 microl/L air at 85% EC formulation applied as fumes for 72 hr measured after 14 days by fumigation bioassay; type: functional
Sitophilus oryzae [18] = assay: Insecticidal activity against adult Sitophilus oryzae (rice weevil) in wheat grain assessed as mortality at 85% EC wettable formulation applied as fumes for 24 hr measured after 7 days by fumigation bioassay; type: functional
Plodia interpunctella [19] = assay: Insecticidal activity against larvae of Plodia interpunctella (Indian meal moth ) in wheat grain assessed as mortality at 85% EC wettable formulation applied as fumes for 72 hr measured after 7 days by fumigation bioassay; type: functional
Tribolium confusum [20] = assay: Insecticidal activity against larvae of Tribolium confusum (confused flour beetle) in broken wheat assessed as mortality at 4.3 microl/L air at 85% EC formulation applied as fumes for 72 hr measured after 14 days by fumigation bioassay; type: functional
Tribolium confusum [21] = assay: Insecticidal activity against adult Tribolium confusum (confused flour beetle) in broken wheat assessed as mortality at 85% EC dry formulation applied as fumes for 24 hr measured after 14 days by fumigation bioassay; type: functional
Tribolium confusum [22] = assay: Insecticidal activity against larvae of Tribolium confusum (confused flour beetle) in broken wheat assessed as mortality at 85% EC dry formulation applied as fumes for 24 hr measured after 14 days by fumigation bioassay; type: functional
Sitophilus oryzae [23] = assay: Insecticidal activity against adult Sitophilus oryzae (rice weevil) in wheat grain assessed as mortality at 4.3 microl/L air at 85% EC formulation applied as fumes for 72 hr measured after 7 days by fumigation bioassay; type: functional
Tribolium confusum [24] = assay: Insecticidal activity against third-instar larval stage of Tribolium confusum (confused flour beetle) assessed as vacuolization of mitochondrial matrix, nucleus with well distributed chromatin, enlarged mitochondria with few cristae, reduced electron density, matrix rarefaction in the epithelial cells of epidermal layer in the integument at LC50 applied as fumes measured after 24 hr by electron microscopic analysis; type: functional, organism-based; details: Epithelial cell
Tribolium confusum [25] = assay: Insecticidal activity against larvae of Tribolium confusum (confused flour beetle) in broken wheat assessed as mortality at 85% EC dry formulation applied as fumes for 72 hr measured after 14 days by fumigation bioassay; type: functional
Tribolium confusum [26] = assay: Insecticidal activity against larvae of Tribolium confusum (confused flour beetle) in broken wheat assessed as mortality at 85% EC wettable formulation applied as fumes for 24 hr measured after 14 days by fumigation bioassay; type: functional
Tribolium confusum [27] = assay: Insecticidal activity against adult Tribolium confusum (confused flour beetle) in broken wheat assessed as mortality at 9.4 microl/L air at 85% EC formulation applied as fumes for 72 hr measured after 14 days by fumigation bioassay; type: functional
Sitophilus oryzae [28] = assay: Insecticidal activity against adult Sitophilus oryzae (rice weevil) in wheat grain assessed as mortality at 9.4 microl/L air at 85% EC formulation applied as fumes for 72 hr measured after 7 days by fumigation bioassay; type: functional
Sitophilus oryzae [29] = assay: Insecticidal activity against adult Sitophilus oryzae (rice weevil) in wheat grain assessed as mortality at 85% EC dry formulation applied as fumes for 72 hr measured after 7 days by fumigation bioassay; type: functional
Tribolium confusum [30] = assay: Insecticidal activity against adult Tribolium confusum (confused flour beetle) in broken wheat assessed as mortality at 4.3 microl/L air at 85% EC formulation applied as fumes for 72 hr measured after 14 days by fumigation bioassay; type: functional
Sitophilus oryzae [31] = assay: Insecticidal activity against adult Sitophilus oryzae (rice weevil) in wheat grain assessed as mortality at 85% EC dry formulation applied as fumes for 24 hr measured after 7 days by fumigation bioassay; type: functional
Sitophilus oryzae [32] = assay: whole plant or invertebrate; details: in Triticum aestivum
Tribolium confusum [33] = assay: Insecticidal activity against adult Tribolium confusum (confused flour beetle) in broken wheat assessed as mortality at 5 mg/l applied as fumes for 72 hr measured after 14 days by fumigation bioassay; details: in Triticum aestivum
Tribolium confusum [34] = assay: Insecticidal activity against larvae of Tribolium confusum (confused flour beetle) in broken wheat assessed as mortality at 5 mg/l applied as fumes for 72 hr measured after 14 days by fumigation bioassay; details: in Triticum aestivum

C=CCN=C=S [ALLYL ISOTHIOCYANATE]
LC50 (Tribolium confusum [1]): 5.5 uL/L
LC95 (Tribolium confusum [1]): 12.8 uL/L
mortality (Tribolium confusum [2]): 93%
LC50 (Tribolium confusum [3]): 4.2 uL/L
LC95 (Tribolium confusum [3]): 7.8 uL/L
LC50 (Sitophilus oryzae [4]): 2.2 uL/L
LC95 (Sitophilus oryzae [4]): 3.7 uL/L
LC50 (Tribolium confusum [5]): 5.5 uL/L
LC95 (Tribolium confusum [5]): 9.9 uL/L
mortality (Sitophilus oryzae [6]): 100%
LC50 (Plodia interpunctella [7]): 3.5 uL/L
LC95 (Plodia interpunctella [7]): 7.7 uL/L
LC50 (Plodia interpunctella [8]): 3.7 uL/L
LC95 (Plodia interpunctella [8]): 8.7 uL/L
Activity (Tribolium confusum [9]): Active
Activity (Tribolium confusum [10]): Active
Activity (Tribolium confusum [11]): Active
LC50 (Plodia interpunctella [12]): 2.2 uL/L
LC95 (Plodia interpunctella [12]): 4.1 uL/L
LC50 (Tribolium confusum [13]): 3.7 uL/L
LC95 (Tribolium confusum [13]): 6.6 uL/L
Activity (Tribolium confusum [14]): Active
Activity (Tribolium confusum [15]): Active
mortality (Tribolium confusum [16]): 100%
mortality (Tribolium confusum [17]): 100%
LC50 (Sitophilus oryzae [18]): 2.7 uL/L
LC95 (Sitophilus oryzae [18]): 4.2 uL/L
LC50 (Plodia interpunctella [19]): 2.3 uL/L
LC95 (Plodia interpunctella [19]): 5 uL/L
mortality (Tribolium confusum [20]): 48%
LC50 (Tribolium confusum [21]): 4.7 uL/L
LC95 (Tribolium confusum [21]): 9.3 uL/L
LC50 (Tribolium confusum [22]): 7.3 uL/L
mortality (Sitophilus oryzae [23]): 100%
Activity (Tribolium confusum [24]): Active
LC50 (Tribolium confusum [25]): 4.7 uL/L
LC95 (Tribolium confusum [25]): 9.5 uL/L
LC50 (Tribolium confusum [26]): 7.1 uL/L
mortality (Tribolium confusum [27]): 100%
mortality (Sitophilus oryzae [28]): 100%
LC50 (Sitophilus oryzae [29]): 2 uL/L
LC95 (Sitophilus oryzae [29]): 3.4 uL/L
mortality (Tribolium confusum [30]): 70%
LC50 (Sitophilus oryzae [31]): 2.6 uL/L
LC95 (Sitophilus oryzae [31]): 4.7 uL/L

P [PHOSPHINE]
mortality at 5 µg/mL (Sitophilus oryzae [32]): 100%
mortality at 5 µg/mL (Tribolium confusum [33]): 100%
mortality at 5 µg/mL (Tribolium confusum [34]): 100%

— ChEMBL document CHEMBL3045627, “Effect of allylisothiocyanate on Sitophilus oryzae, Tribolium confusum and Plodia interpunctella: Toxicity and effect on insect mitochondria” (2012)
